In EP0933350A1, “Tricyclic retinoids, methods for their production and use” (LIGAND PHARMACEUTICALS INCORPORATED, priority 1994, dated 1996) one finds IC50 and IC80 data, which are given here for two compounds.

For assay [1], the system named is AML-193 cell line. The assay can be described thus: viability (tetrazolium dye, mitochondrial function). It is filed as cell-based. The conditions noted are these: Homo sapiens, 96 hours, read-out: MTS IC50.
Assay [2] concerns ME 180 cell line. The description is as above. It counts as cell-based. The conditions noted are these: Homo sapiens, 96 hours, read-out: MTS IC50.
The test system of assay [3] is RPMI 8226 cell line. Described as above. The conditions noted are these: Homo sapiens, 96 hours, read-out: MTS IC50. It is filed as cell-based.
The subject of assay [4] is RPMI 8226 cell line. The assay can be described thus: incorporation of 3H-thymidine (antiproliferative). It counts as cell-based. The conditions noted are these: Homo sapiens, 96 hours, radiolabeled thymidine incorporation, read-out: TdR IC50.
Assay [5] has as its system AML-193 cell line. The assay can be described thus: incorporation of 3H-thymidine (antiproliferative). The conditions noted are these: Homo sapiens, 96 h, read-out: TdR IC50 (nM).
In assay [6] the test system is ME 180 cell line. The assay can be described thus: incorporation of 3H-thymidine (antiproliferative). It is filed as cell-based. As to conditions: Homo sapiens, 96 hours, radiolabeled thymidine incorporation, read-out: TdR IC50.
The subject of another assay is TPA induction of ODC. The assay can be described thus: ornithine decarboxylase (ODC) assay: inhibition of TPA induction of ODC. It is filed as cell-based. As to conditions: concentration required to inhibit the TPA induction of ODC by 80 percent.

Turning to `CC(/C=C/C=C1/CC(C)(C)Oc2cc3c(cc21)C(C)(C)CCC3(C)C)=C\C(=O)O` [Compound 104b, (2E,4E)-3-Methyl-6-(2,3,6,7,8,9-hexahydro-2,2,6,6,9,9-hexamethylbenzo[b]-chromen-4-ylidene)-hexa-2,4-dienoic acid], the half-inhibitory concentration (IC50) in the assay on AML-193 cell line [1] stood at 1 µM; with ME 180 cell line [2], 1 µM; in the assay on RPMI 8226 cell line [3] it was 0.09 µM; in the assay with RPMI 8226 cell line [4] it was 0.03 µM; in the assay with AML-193 cell line [5], 90 nM; in the assay on ME 180 cell line [6] it was 0.09 µM.

`CCOC(=O)/C=C(C)/C=C/C=C1/CCCc2cc3c(cc21)C(C)(C)CCC3(C)C` [Compound 101a, Ethyl (2E,4E)-3-methyl-6-[(Z)-3,4,5,6,7,8-hexahydro-5,5,8,8-tetramethyl-2H-anthracen-1-ylidene]hexa-2,4-dienoate] had a concentration for an effect of 80% (IC80) in the assay with TPA induction of ODC of 0.091 µM.
